Key:
[1] = target: T1, Lysosomal acid glucosylceramidase (Mus musculus, UniProt P17439)
T1 sequence (P17439 whole entry): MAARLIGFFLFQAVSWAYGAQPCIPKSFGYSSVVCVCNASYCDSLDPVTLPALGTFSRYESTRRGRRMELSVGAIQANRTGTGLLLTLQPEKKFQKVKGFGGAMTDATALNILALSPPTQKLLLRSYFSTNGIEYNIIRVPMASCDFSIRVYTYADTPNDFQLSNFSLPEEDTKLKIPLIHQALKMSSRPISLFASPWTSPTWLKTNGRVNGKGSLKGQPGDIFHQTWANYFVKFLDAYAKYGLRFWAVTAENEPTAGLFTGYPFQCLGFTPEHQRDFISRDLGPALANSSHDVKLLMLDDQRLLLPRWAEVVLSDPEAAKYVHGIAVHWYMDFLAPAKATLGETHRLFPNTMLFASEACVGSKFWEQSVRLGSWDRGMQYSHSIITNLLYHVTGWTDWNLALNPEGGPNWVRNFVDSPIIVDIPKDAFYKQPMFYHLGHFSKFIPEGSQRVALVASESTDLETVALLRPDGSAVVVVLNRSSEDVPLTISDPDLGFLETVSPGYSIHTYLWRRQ

[2] = target: T1, Lysosomal acid glucosylceramidase; test: Compound was tested for inhibitory activity against beta-glucocerebrosidase.

Row | IC50 [2] [nM] | SMILES | IC50 [1]
1 |  | N[C@H]1C=C(CO)C(O)[C@H](O)C1O (single isomer, unassigned) [VALIENAMINE] | Not Active
2 | 1100 | OC1C2O[C@H]2[C@@H](O)C(O)[C@@H]1O (some centres undefined) | 
3 | 300 | CCCCCCCCCCCCCCCCCCN[C@@H]1C=C(CO)[C@H](O)C(O)[C@@H]1O (some centres undefined) | 
4 | 300 | CCCCCCN[C@@H]1C=C(CO)[C@H](O)C(O)[C@@H]1O (some centres undefined) | 
5 | 70 | CCCCCCCCCCN[C@@H]1C=C(CO)[C@H](O)C(O)[C@@H]1O (some centres undefined) | 
6 | 30 | CCCCCCCCN[C@@H]1C=C(CO)[C@H](O)C(O)[C@@H]1O (some centres undefined) | 
7 | 300 | CCCCCCCCCCCCC/C=C/[C@@H](O)[C@H](CN[C@@H]1C=C(CO)[C@H](O)C(O)[C@@H]1O)NC(=O)CCCCCCCCCCCCCCC (some centres undefined) | 
8 | 11000 | CCCCN[C@@H]1C=C(CO)[C@H](O)C(O)[C@@H]1O (some centres undefined) | 
9 | 120 | CCCCCCCCCCCCCCN[C@@H]1C=C(CO)[C@H](O)C(O)[C@@H]1O (some centres undefined) | 
